What follows are compounds tested on Miro1 (assay: Miro1 reduction after compound administration, Western blot). Settings: Western blot method.
Assay type: cell-based
With `NS(=O)(=O)Cc1noc2ccccc12` [Zonisamide, 1,2-benzisoxazole-3-methanesulfonamide] the “Miro1 Lowering” value was “YES”.
`N#Cc1ccc(Cn2ccc(NC(=O)Cc3ccc(C4(C(F)(F)F)CC4)cc3)n2)nc1` [ACT-709478, N-(1-((5-cyanopyridin-2-yl)methyl)-1H-pyrazol-3-yl)-2-(4-(1-(trifluoromethyl)cyclopropyl)phenyl)acetamide] was tested, and the “Miro1 Lowering” value was “YES”.

Each compound was assayed on Miro1 (assay: Miro1 fibroblast assay (CCCP challenge, Miro1 Western blot)). Settings: skin fibroblasts from human Parkinson's disease patients, CCCP 40 μM 24 hr; read-out: Fibroblast IC50 (nM), Miro1 reduction.
Assay type: cell-based
Protocol: Fibroblast Challenge and Miro1 Western blot: Skin fibroblasts were obtained from human Parkinson's disease (PD) patients. CCCP was applied at 40 μM for 24 hr to fibroblasts before cells were lysed in RIPA lysis buffer with 0.25 mM PMSF and protease inhibitors. Lysates were cleared by centrifugation at 17,000×g for 10 min at 4° C., and supernatants were run in an SDS-PAGE for Western blotting. After electrophoresis, nitrocellulose membranes (Bio-Rad) were used in wet transfer. Transferred membranes were first blocked for 1 hr in phosphate-buffered saline (PBS) containing 5% fat-free milk and 0.1% tween-20, and then incubated with the following primary antibodies: rabbit anti-Miro1 (HPA010687, Sigma-Aldrich) at 1:1,000, mouse anti-ATP50 (AB14730, Abcam) at 1:5,000, mouse anti-β-Actin (A00702, Genscript) at 1:3,000, or rabbit anti-VDAC (4661S, Cell Signaling Technology) at 1:1,000 at 4° C. overnight in blocking buffer. West Dura ECL reagents (GE Healthcare) were used for ECL immunoblotting with HRP-conjugated goat anti-mouse or anti-rabbit, anti-mouse IgG (Jackson ImmunoResearch Laboratories) at 1:5-10,000. Membranes were exposed to UltraCruz autoradiography films (Santa Cruz Biotechnology) and developed on a Konica Minolta SRX-101A developer.
T-type calcium channel antagonists that could reduce Miro1 level were tested in the above PD fibroblast assay.
`N#Cc1ccc(Cn2ccc(NC(=O)Cc3ccc(C4(C(F)(F)F)CC4)cc3)n2)nc1` [ACT-709478, N-(1-((5-cyanopyridin-2-yl)methyl)-1H-pyrazol-3-yl)-2-(4-(1-(trifluoromethyl)cyclopropyl)phenyl)acetamide] was tested, and the IC50 was 3930 nM.

The compounds below were run against Cav3.2 (Homo sapiens (Human), UniProt O95180) (assay: In vitro patch clamp assay (SyncroPatch 384PE)). Settings: HEK293 cells.
Cav3.2, sequence (O95180 whole entry): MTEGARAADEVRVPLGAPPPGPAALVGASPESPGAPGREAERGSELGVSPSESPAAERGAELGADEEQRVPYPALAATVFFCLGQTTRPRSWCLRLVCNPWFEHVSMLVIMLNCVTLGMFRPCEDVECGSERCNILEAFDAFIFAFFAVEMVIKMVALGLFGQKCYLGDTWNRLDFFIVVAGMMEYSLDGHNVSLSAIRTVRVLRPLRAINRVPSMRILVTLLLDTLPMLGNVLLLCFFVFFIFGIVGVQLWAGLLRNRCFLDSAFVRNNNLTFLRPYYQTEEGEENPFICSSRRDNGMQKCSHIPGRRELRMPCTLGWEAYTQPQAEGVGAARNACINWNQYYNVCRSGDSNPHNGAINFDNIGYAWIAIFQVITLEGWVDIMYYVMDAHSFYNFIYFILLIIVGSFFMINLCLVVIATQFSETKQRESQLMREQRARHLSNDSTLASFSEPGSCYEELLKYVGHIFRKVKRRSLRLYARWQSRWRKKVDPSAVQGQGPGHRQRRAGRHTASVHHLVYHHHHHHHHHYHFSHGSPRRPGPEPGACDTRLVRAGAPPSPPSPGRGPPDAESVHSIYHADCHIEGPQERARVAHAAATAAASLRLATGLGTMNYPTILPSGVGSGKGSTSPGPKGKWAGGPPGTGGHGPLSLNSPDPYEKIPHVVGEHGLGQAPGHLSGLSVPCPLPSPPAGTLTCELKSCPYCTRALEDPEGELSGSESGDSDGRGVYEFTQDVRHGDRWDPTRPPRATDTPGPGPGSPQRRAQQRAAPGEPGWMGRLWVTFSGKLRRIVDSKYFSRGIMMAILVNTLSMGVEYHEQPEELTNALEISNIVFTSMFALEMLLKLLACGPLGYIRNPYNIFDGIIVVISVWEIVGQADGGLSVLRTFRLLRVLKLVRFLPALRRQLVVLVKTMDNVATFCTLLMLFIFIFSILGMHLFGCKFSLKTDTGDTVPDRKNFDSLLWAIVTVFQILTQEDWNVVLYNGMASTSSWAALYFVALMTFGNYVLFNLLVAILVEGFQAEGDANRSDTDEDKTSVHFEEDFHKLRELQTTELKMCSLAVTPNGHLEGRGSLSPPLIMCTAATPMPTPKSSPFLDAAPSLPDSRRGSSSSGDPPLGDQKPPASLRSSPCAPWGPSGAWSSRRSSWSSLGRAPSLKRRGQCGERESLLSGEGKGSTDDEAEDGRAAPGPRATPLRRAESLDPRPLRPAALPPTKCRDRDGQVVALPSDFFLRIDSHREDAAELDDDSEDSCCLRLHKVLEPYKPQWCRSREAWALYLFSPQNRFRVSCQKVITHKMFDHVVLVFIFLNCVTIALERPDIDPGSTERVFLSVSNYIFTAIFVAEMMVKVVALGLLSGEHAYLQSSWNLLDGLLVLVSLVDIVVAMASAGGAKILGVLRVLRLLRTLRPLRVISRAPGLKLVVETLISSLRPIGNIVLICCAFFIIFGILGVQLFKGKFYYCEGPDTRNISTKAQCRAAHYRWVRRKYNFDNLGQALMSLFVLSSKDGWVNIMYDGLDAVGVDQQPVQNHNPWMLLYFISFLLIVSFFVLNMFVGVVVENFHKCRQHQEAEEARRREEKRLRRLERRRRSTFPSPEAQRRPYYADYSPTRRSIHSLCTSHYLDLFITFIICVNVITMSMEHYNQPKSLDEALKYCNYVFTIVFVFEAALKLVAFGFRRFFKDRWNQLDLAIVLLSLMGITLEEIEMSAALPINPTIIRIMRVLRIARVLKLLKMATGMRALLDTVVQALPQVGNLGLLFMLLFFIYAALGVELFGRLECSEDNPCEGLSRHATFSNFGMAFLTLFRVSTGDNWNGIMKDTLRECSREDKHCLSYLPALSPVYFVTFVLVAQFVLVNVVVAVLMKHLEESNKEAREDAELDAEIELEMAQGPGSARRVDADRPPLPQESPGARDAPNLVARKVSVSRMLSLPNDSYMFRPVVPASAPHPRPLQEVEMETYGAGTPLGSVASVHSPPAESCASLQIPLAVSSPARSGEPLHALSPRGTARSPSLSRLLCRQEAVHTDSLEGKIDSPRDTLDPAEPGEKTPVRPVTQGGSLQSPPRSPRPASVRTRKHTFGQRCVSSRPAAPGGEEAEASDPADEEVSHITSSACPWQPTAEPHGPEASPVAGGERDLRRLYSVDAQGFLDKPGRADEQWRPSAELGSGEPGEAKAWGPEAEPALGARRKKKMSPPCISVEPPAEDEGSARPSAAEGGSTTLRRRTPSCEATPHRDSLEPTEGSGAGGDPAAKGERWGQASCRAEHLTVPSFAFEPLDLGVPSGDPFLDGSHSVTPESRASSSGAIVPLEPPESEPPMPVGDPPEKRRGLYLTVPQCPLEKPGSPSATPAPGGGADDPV
Assay type: cell-based
Protocol: Patch clamp assays were performed at Charles River. HEK293 cells were cultured in Dulbecco's Modified Eagle Medium/Nutrient Mixture F-12 (D-MEM/F-12) supplemented with 10% fetal bovine serum, 100 U/mL penicillin G sodium, 100 μg/mL streptomycin sulfate and 500 μg/mL G418. Before testing, cells in culture dishes were washed twice with Hank's Balanced Salt Solution, treated with Accutase™ and re-suspended in the culture media (˜20×10^6 cells in 20 mL). Cells in suspension were allowed to recover for 10 minutes in tissue culture incubator set at 37° C. in a humidified 95% air: 5% CO2 atmosphere. Immediately before use in the SyncroPatch 384PE system (SP384PE), the cells were washed twice in extracellular buffer (HB-PS) to remove the culture medium and re-suspended in 20 mL of HB-PS. Extracellular buffer was loaded into the wells of Nanion 384-well Patch Clamp (NPC-384, 4×M) chip (60 μL per well). Then, cell suspension was pipetted into the wells (20 μL per well) of the chip. After establishment of the whole-cell configuration, membrane currents were recorded using patch clamp amplifier in the SP384PE system.
In the case of `C[C@@H](NC(=O)Cc1cnc(C(C)(F)F)c(Cl)c1)c1cc2cnn(CC(F)(F)F)c2cn1` [Example 35, (R)-2-(5-chloro-6-(1,1-difluoroethyl)pyridin-3-yl)-N-(1-(1-(2,2,2-trifluoroethyl)-1H-pyrazolo[3,4-c]pyridin-5-yl)ethyl)acetamide], the IC50 is reported as 2130 nM.
`[2H][C@](C)(NC(=O)Cc1ccc(C(F)(F)F)cc1)c1cc2cnn(CC(F)(F)F)c2cn1` [Example 55, (R)—N-(1-(1-(2,2,2-trifluoroethyl)-1H-pyrazolo[3,4-c]pyridin-5-yl)ethyl-1-d)-2-(4-(trifluoromethyl)phenyl)acetamide] gave an IC50 of 335 nM.
In the case of `Cc1nc2cc(CC(=O)N[C@H](C)c3cc4cnn(CC(F)(F)F)c4cn3)ccc2n1C` [Example 53, (R)-2-(1,2-dimethyl-1H-benzo[d]imidazol-5-yl)-N-(1-(1-(2,2,2-trifluoroethyl)-1H-pyrazolo[3,4-c]pyridin-5-yl)ethyl)acetamide], the IC50 is reported as 919 nM.
`C[C@@H](NC(=O)Cc1ccc(C2(C(F)(F)F)CC2)cc1)c1cc2cnn(C)c2cn1` [Example 12, (R)—N-(1-(1-methyl-1H-pyrazolo[3,4-c]pyridin-5-yl)ethyl)-2-(4-(1-(trifluoromethyl)cyclopropyl)phenyl)acetamide] showed an IC50 of 647 nM.
With `C[C@@H](NC(=O)Cc1ccc(C(F)(F)F)cc1)c1cc2cnn(CC(C)(F)F)c2cn1` [Example 40, (R)—N-(1-(1-(2,2-difluoropropyl)-1H-pyrazolo[3,4-c]Pyridin-5-yl)ethyl)-2-(4-(trifluoromethyl)phenyl)acetamide] the IC50 was 827 nM.
`C[C@@H](NC(=O)Cc1ccc(C2(C(F)(F)F)CC2)nc1)c1ccc(OCC(F)(F)F)cn1` [Example 59, (R)—N-(1-(5-(2,2,2-trifluoroethoxy)pyridin-2-yl)ethyl)-2-(6-(1-(trifluoromethyl)cyclopropyl)pyridin-3-yl)acetamide] showed an IC50 of 97 nM.
Work on `Cc1nn(CC(F)(F)F)c2cnc([C@@H](C)NC(=O)Cc3ccc(C4CC4)cc3)cc12` [Example 33, (R)-2-(4-cyclopropylphenyl)-N-(1-(3-methyl-1-(2,2,2-trifluoroethyl)-1H-pyrazolo[3,4-c]pyridin-5-yl)ethyl)acetamide] yielded an IC50 of 8270 nM.
`C[C@@H](NC(=O)Cc1ccc(C2CC2)cc1)c1cc2cnn(-c3ccc(F)cc3)c2cn1` [Example 27, (R)-2-(4-cyclopropylphenyl)-N-(1-(1-(4-fluorophenyl)-1H-Pyrazolo[3,4-c]pyridin-5-yl)ethyl)acetamide] gave an IC50 of 861 nM.
Work on `C[C@@H](NC(=O)Cc1ccc(C2(C(F)(F)F)CC2)nc1)c1cc2cnn(CC(F)(F)F)c2cn1` [Example 26, (R)—N-(1-(1-(2,2,2-trifluoroethyl)-1H-pyrazolo[3,4-c]pyridin-5-yl)ethyl)-2-(6-(1-(trifluoromethyl)cyclopropyl)pyridin-3-yl)acetamide] yielded an IC50 of 7030 nM.
In the case of `C[C@@H](NC(=O)Cc1ccc(C2(C(F)(F)F)CC2)s1)c1cc2cnn(CC(F)(F)F)c2cn1` [Example 17, (R)—N-(1-(1-(2,2,2-trifluoroethyl)-1H-pyrazolo[3,4-c]pyridin-5-yl)ethyl)-2-(5-(1-(trifluoromethyl)cyclopropyl)thiophen-2-yl)acetamide], the IC50 is reported as 292 nM.
With `C[C@@H](NC(=O)Cc1ccc(C2(C#N)CC2)cc1)c1cc2cnn(CC(F)(F)F)c2cn1` [Example 47, (R)-2-(4-(1-cyanocyclopropyl)phenyl)-N-(1-(1-(2,2,2-trifluoroethyl)-1H-pyrazolo[3,4-c]pyridin-5-yl)ethyl)acetamide] the IC50 was 220 nM.
With `CC[C@@H](NC(=O)Cc1ccc(C(F)(F)F)cc1)c1cc2cnn(CC(F)(F)F)c2cn1` [Example 45, (R)—N-(1-(1-(2,2,2-trifluoroethyl)-1H-pyrazolo[3,4-c]pyridin-5-yl)propyl)-2-(4-(trifluoromethyl)phenyl)acetamide] the IC50 was 113 nM.
With `CC(C)c1ccc(CC(=O)N[C@H](C)c2ccc(OCC(F)(F)F)cn2)cc1` [Example 56, 2-(4-isopropylphenyl)-N-[(1R)-1-(5-(2,2,2-trifluoroethoxy)pyridin-2-yl)ethyl]acetamide] the IC50 was 37 nM.
`Cc1noc2cc([C@@H](C)NC(=O)Cc3ccc(C(C)C)cc3)ncc12` [Example 5, (R)-2-(4-isopropylphenyl)-N-(1-(3-methylisoxazolo[4,5-c]pyridin-6-yl)ethyl)acetamide] gave an IC50 of 1220 nM.
`C[C@@H](NC(=O)Cc1ccc(C(C)(F)F)c(Cl)c1)c1cc2cnn(CC(F)(F)F)c2cn1` [Example 37, (R)-2-(3-chloro-4-(1,1-difluoroethyl)phenyl)-N-(1-(1-(2,2,2-trifluoroethyl)-1H-pyrazolo[3,4-c]pyridin-5-yl)ethyl)acetamide] gave an IC50 of 84 nM.
`CC(C)c1ccc(CC(=O)N[C@H](C)c2cc3cnn(CC(C)(F)F)c3cn2)cc1` [Example 14, (R)—N-(1-(1-(2,2-difluoropropyl)-1H-pyrazolo[3,4-c]pyridin-5-yl)ethyl)-2-(4-isopropylphenyl)acetamide] was tested, and the IC50 was 85 nM.
`C[C@@H](NC(=O)Cc1ccc2c(c1)c(C#N)cn2C)c1cc2cnn(CC(F)(F)F)c2cn1` [Example 50, (R)-2-(3-cyano-1-methyl-1H-indol-5-yl)-N-(1-(1-(2,2,2-trifluoroethyl)-1H-pyrazolo[3,4-c]pyridin-5-yl)ethyl)acetamide] was tested, and the IC50 was 850 nM.
Compound `CC(C)c1ccc(CC(=O)N[C@H](C)c2cc3cn(C)nc3cn2)cc1` [Example 2, (R)-2-(4-isopropylphenyl)-N-(1-(2-methyl-2H-pyrazolo[3,4-c]pyridin-5-yl)ethyl)acetamide] has an IC50 of 6450 nM.
`C[C@@H](NC(=O)Cc1ccc(C(F)(F)F)cc1)c1cc2ccn(CC(F)(F)F)c2cn1` [Example 51, (R)—N-(1-(1-(2,2,2-trifluoroethyl)-1H-pyrrolo[2,3-c]pyridin-5-yl)ethyl)-2-(4-(trifluoromethyl)phenyl)acetamide] was tested, and the IC50 was 411 nM.
Compound `C[C@@H](NC(=O)Cc1ccc(C2CC2)cc1)c1cc2nnn(CC(F)(F)F)c2cn1` [Example 24, (R)-2-(4-cyclopropylphenyl)-N-(1-(3-(2,2,2-trifluoroethyl)-3H-[1,2,3]triazolo[4,5-c]pyridin-6-yl)ethyl)acetamide] has an IC50 of 333 nM.
Work on `Cc1noc2cnc([C@@H](C)NC(=O)Cc3ccc(C(C)C)cc3)cc12` [Example 6, (R)-2-(4-isopropylphenyl)-N-(1-(3-methylisoxazolo[5,4-c]pyridin-5-yl)ethyl)acetamide] yielded an IC50 of 7840 nM.
For `CC(C)c1ccc(CC(=O)N[C@H](C)c2cc3c(cn2)OC(F)(F)O3)cc1` [Example 57, (R)—N-(1-(2,2-difluoro-[1,3]dioxolo[4,5-c]pyridin-6-yl)ethyl)-2-(4-isopropylphenyl)acetamide], the IC50 was 868 nM.
Compound `CC(C)c1ccc(CC(=O)N[C@H](C)c2cc3c(cn2)cnn3C)cc1` [Example 3, (R)-2-(4-isopropylphenyl)-N-(1-(1-methyl-1H-pyrazolo[4,3-c]pyridin-6-yl)ethyl)acetamide] has an IC50 of over 10000 nM.
`CC(C)c1ccc(CC(=O)N[C@H](C)c2cc3cnn(C)c3cn2)cc1` [Example 1, (R)-2-(4-isopropylphenyl)-N-(1-(1-methyl-1H-pyrazolo[3,4-c]pyridin-5-yl)ethyl)acetamide] showed an IC50 of 522 nM.
In the case of `C[C@@H](NC(=O)Cc1ccc(C2(C(F)(F)F)CC2)cc1)c1cc2cnn(CC(F)(F)F)c2cn1` [Example 44, (R)—N-(1-(1-(2,2,2-trifluoroethyl)-1H-pyrazolo[3,4-c]pyridin-5-yl)ethyl)-2-(4-(1-(trifluoromethyl)cyclopropyl)phenyl)acetamide], the IC50 is reported as 71 nM.
Work on `Cc1c(C#N)c2cc(CC(=O)N[C@H](C)c3cc4cnn(CC(F)(F)F)c4cn3)ccc2n1C` [Example 54, (R)-2-(3-cyano-1,2-dimethyl-1H-indol-5-yl)-N-(1-(1-(2,2,2-trifluoroethyl)-1H-pyrazolo[3,4-c]pyridin-5-yl)ethyl)acetamide] yielded an IC50 of 529 nM.
